Reference: patent EP0408284B1, “Amylin for treatment of bone disorders” (AMYLIN PHARMACEUTICALS, INC., priority 1989, dated 1996)
Where two headings read alike, the source gives them in different places. Ends that are not written are not given here.

Experiments:
[1] = test system: disaggregated rat osteoclasts
Experimental: (§1) Bone resorption assay: Human cortical bone slices were prepared as previously described (Zaidi et al. Quart J.Exp. Physiol. 73, p. 471 (1988). The slices were then cut into pieces, each measuring about 3mm². Newborn Wistar rats were killed by decapitation and their femora and tibiae removed. The bones were freed of adherent soft tissues and cut across their epiphyses in Medium 199 with foetal calf serum (FCS, 10%, v/v) and antibiotics (Flow Laboratories, UK, Ltd.). Osteoclasts were mechanically disaggregated by curetting the bones of each rat with a scalpel blade into Medium 199 (1 ml) and agitating the suspension with a pipette. Large fragments were allowed to settle for 10 seconds, before the supernatant was dropped onto 30 to 35 bone slices placed in a well of a Sterilin 100 18mm multiwell dish. Following incubation (37°C; 15 minutes), the bone slices were removed, washed gently in Minimal Essential Medium with FCS (10%, v/v) (MEM/FCS) and placed in separate wells (each well contained 5-6 slices and 900 µl MEM/FCS). […] After further incubation (37°C, 10% humidified CO₂, 10 minutes), 100 µl of MEM/FCS containing the test substance was added. Finally, bone slices were incubated overnight (37°C, 10% humidified CO₂, 18 hours) and quantified in terms of cell numbers and bone resorption. After fixation in glutaraldehyde, cells were stained with toluidine blue and examined by transmitted light microscopy. In order to rule out toxic effects, osteoclasts were counted on three slices for every variable and their numbers were then compared on hormone-treated and control bone slices. The slices were bleached by immersion in sodium hypochlorite solution (10% v/v) for 30 minutes and dehydrated in aqueous ethanol (80% v/v). The slices were then sputter coated with gold, randomized and examined in a Cambridge 360 Scanning Electron Microscope (Cambridge Instruments, Cambridgeshire). Osteoclastic excavations, each defined by a continuous border within an area of unresorbed bone were counted. The area of bone surface resorbed was calculated by tracing the outline of the concavities into an image processor (Sight Systems, Newbury, Berks).

[2] = in vivo rat hypocalcaemia assay: plasma calcium after intravenous injection of the peptide; design: species or system male Wistar rats
Experimental: The effects of amylin and deamidated amylin on calcium metabolism in the rat and rabbit were investigated by two different methods. First, in vivo hypocalcaemic activity was assessed by measuring plasma calcium levels after injection of the peptide in 50 g rats. Next, in vitro resorption of cortical bone by disaggregated rat osteoclasts was quantified by scanning electron microscopy together with image analysis. […] Both are inhibitors of osteoclastic resorption and lower plasma calcium in both rats and rabbits. Described below are experiments which show the biological activity of both amylin and deamidated amylin using the in vivo rat hypocalcaemia assay and an in vitro bone resorption system. In addition, the effect on plasma calcium levels of infusion of high doses of amylin into rabbits is described.
Animal experiments: Fifty gram male Wistar rats (mean weight ± SEM, 51 ± 1.2g, Charles Rivers, Margate, Kent) were fasted overnight with ad lib access to water and used for experiments. […] Following injection the animals were bled into heparinized syringes via the dorsal aorta under light ether anaesthesia. In another set of experiments, rabbits (mean weight ± SEM, 3.2 ± 0.3 kg) were restrained in wooden cages and sedated with Hypnorm (1 ml) (Janssen, Denmark). […] Plasma was separated and calcium levels measured by DC Plasma Emission Spectrophotometry.

[3] = test system: disaggregated rat osteoclasts; experiment: bone resorption assay: isolated osteoclasts on human cortical bone slices, scanning electron microscopy with image analysis
Experimental: as §1

[4] = plasma calcium during and after continuous intravenous infusion into rabbits; format: in vivo; details: infusion of 500 pmol per minute over 90 minutes
Experimental: Animal experiments: Fifty gram male Wistar rats (mean weight ± SEM, 51 ± 1.2g, Charles Rivers, Margate, Kent) were fasted overnight with ad lib access to water and used for experiments. […] Following injection the animals were bled into heparinized syringes via the dorsal aorta under light ether anaesthesia. In another set of experiments, rabbits (mean weight ± SEM, 3.2 ± 0.3 kg) were restrained in wooden cages and sedated with Hypnorm (1 ml) (Janssen, Denmark). They were infused with saline or amylin (500 pmol min ⁻¹) for 90 minutes via a 21 G needle inserted into the lateral ear vein. The needle was connected to a pump via a polythene cannula (Portex, 00, Hythe, Kent). Blood samples were taken at timed intervals before and after the infusion was commenced. Plasma was separated and calcium levels measured by DC Plasma Emission Spectrophotometry.

[5] = plasma calcium after intravenous infusion in patients with Paget's disease; format: in vivo
Experimental: Furthermore, 1 hour of intravenous infusion of 150 pmol/Kg/min amylin into four human patients with Paget's disease reduced plasma calcium by amounts ranging from […].

isolated osteoclasts = experiment: second messenger pathways and functional responses of isolated osteoclasts; format: cell-based
Description: Thus, it appears that osteoclast activity may be restrained via two receptor types; calcitonin acts at both while amylin acts mainly via only one, reducing motility, reducing resorption and probably acting via the second messenger cAMP (Zaidi et. al. 1990, J. Endocrinol 126, 473-481).

[6] = peptides not all compared in the same assay

| Compound | cell number or viability [1] | effect on plasma calcium ([2]; 50 g rats, intravenous injection of 500 pmol) | responses (hypocalcaemic and anti-resorptive activity) compared with calcitonin and CGRP ([2]; summary covering the in vivo and the in vitro tests, order: asu1-7-eel CT>human CT>amylin/amylin amide>CGRP) | total area of bone resorbed by isolated osteoclasts ([3]; 18 hours incubation, concentration-dependent) | cell number or viability ([3]; osteoclasts counted on hormone-treated and control bone slices) | potency compared with CGRP [3, 6] | potency compared with human calcitonin [3, 6] | effect on plasma calcium [4] | time calcium levels continued to fall after the end of the infusion [4] [min] | time until a trend to lower plasma calcium was apparent [4] [min] | potency compared with human calcitonin [5] | cell retraction (isolated osteoclasts) | cytosolic calcium (isolated osteoclasts) | osteoclast motility (isolated osteoclasts) |
| --- | --- | --- | --- | --- | --- | --- | --- | --- | --- | --- | --- | --- | --- | --- |
| CC[C@H](C)[C@H](NC(=O)[C@H](C)NC(=O)CNC(=O)[C@H](Cc1ccccc1)NC(=O)[C@H](CC(N)=O)NC(=O)[C@H](CC(N)=O)NC(=O)[C@H](CO)NC(=O)[C@H](CO)NC(=O)[C@H](Cc1c[nH]cn1)NC(=O)[C@@H](NC(=O)[C@H](CC(C)C)NC(=O)[C@H](Cc1ccccc1)NC(=O)[C@H](CC(N)=O)NC(=O)[C@H](C)NC(=O)[C@H](CC(C)C)NC(=O)[C@H](CCCNC(=N)N)NC(=O)[C@H](CCC(N)=O)NC(=O)[C@@H](NC(=O)[C@H](C)NC(=O)[C@@H]1CSSC[C@H](NC(=O)[C@@H](N)CCCCN)C(=O)N[C@@H](CC(N)=O)C(=O)N[C@@H]([C@@H](C)O)C(=O)N[C@@H](C)C(=O)N[C@@H]([C@@H](C)O)C(=O)N1)[C@@H](C)O)C(C)C)C(=O)N[C@@H](CC(C)C)C(=O)N[C@@H](CO)C(=O)N[C@@H](CO)C(=O)N[C@H](C(=O)N[C@@H](CC(N)=O)C(=O)N[C@H](C(=O)NCC(=O)N[C@@H](CO)C(=O)N[C@@H](CC(N)=O)C(=O)N[C@H](C(=O)N[C@@H](Cc1ccc(O)cc1)C(=O)O)[C@@H](C)O)C(C)C)[C@@H](C)O [deamidated amylin] | without affecting cell number or viability |  |  |  |  |  |  |  |  |  |  |  |  |  |
| amylin (KCNTATCATQRLANFLVHSSNNFGAILSSTNVGSNTY-NH2; cysteine pairing not given here; UniProt P10997 34-70, looked up) [37 amino acid polypeptide, disulfide bridge between cysteines 2 and 7, amidated; isolated from amyloid deposits in pancreatic islets] |  | marked hypocalcaemia | less than for calcitonin, but significantly greater than those observed with CGRP | marked reduction | without affecting cell number or viability | more potent than CGRP | less potent than human calcitonin by about an order or magnitude | marked lowering of plasma calcium | 30 | ≤ 30 | comparably potent to human calcitonin | evoked neither of these responses | evoked neither of these responses | inhibited osteoclast motility |
| calcitonin [reference compound] |  |  |  |  |  |  |  |  |  |  |  | caused cell retraction | elevated cytosolic calcium | inhibited osteoclast motility |
